From US20250082625A1, “NOVEL THERAPY” (priority 2016, published 2025)
Where no end group is shown, it is not given here.

Key:
HTB-9 cells [1] = assay: Pre-treatment of HTB-9 bladder epithelial cells before CY17 infection (confocal imaging, ELISA); format: cell-based, human; conditions: for IL-1β secretion (ELISA, culture supernatants) / SP secretion (ELISA, culture supernatants): pre-treated before CY17 infection
Experimental: (§1) Cells were grown on 8-well chamber slides (6×10^4 cells/well, Thermo Fischer Scientific) or in 6-well plates (6×10^5 cells/well) for 16 hours in media supplemented with 10% FBS. Media were removed, and cells were washed with PBS before adding medium without FBS. Cells were infected with bacteria diluted to appropriate concentration in PBS and incubated for one or four hours at 37° C. with 5% CO2.
(§2) The two cell types were first infected with increasing concentrations of the acute cystitis strain E. coli CY-17 (10^2-10^4 cfu/ml) for 1 to 4 hours. NK1R and SP expression was used as a read out of the cellular response. […] A concentration of 10^4 cfu/ml of CY-17 and four hours of infection was chosen for further studies. Under these conditions, there was little cytotoxicity. To further characterize the neuropeptide response to bladder infection, the in vitro analysis was extended to include GALR2, OrxR2 and TAS2R43. Confocal microscopy was used in this instance. Infected cells were fixed (3.7% formaldehyde, 15 min), permeabilized (0.25% triton X-100, 5% FBS, 10 min), blocked (5% FBS, 1 h at RT), incubated overnight with primary antibodies in 5% FBS: Anti-NK1R (1:100, SC-15323, Santa Cruz), anti-SP, (1:200, ORB11399, Biorbyt), anti-orexin receptor 2, (1:200, AB10470, Abcam), anti-TAS2R43, (1:200, AB65513, Abcam), and anti-GALR2 antibodies (1:100, AB136264, Abcam). Appropriate fluorescently labeled secondary antibodies were used (Alexa Fluor® 488 goat anti-rabbit IgG, A-11034; Life Technologies, (1 hour at Room Temperature). After nuclear staining (DRAQ5, 1:1000, Abcam) slides were mounted (Fluoromount, Sigma-Aldrich), imaged by laser scanning confocal microscopy (MSM510 META confocal microscope, Carl Zeiss) and quantified by ImageJ software 1.46r (NIH).
(§3) HTB-9 cells and differentiated SH-SY5Y cells were pre-treated with SR140333, or IL-1RA Anakinra (500 ng/ml) for 30 minutes before infection with CY17 (10^4 cfu/ml, four hours), or treatment with exogenous recombinant SP (R&D System) or IL-1β (Abnova) (20 ng/ml, four hours). After infection, cells were infected with CY17 and the NK1R, SP and IL-1β response was quantified by confocal imaging. IL-1β- and SP secretion was quantified by ELISA, in culture supernatants. In nerve- and bladder epithelial cells, SR140333 inhibited the SP/NK1R response to infection, consistent with an autocrine activation loop involving SP/NK1R as shown by confocal imaging (FIG. 10a). […] SP activated IL-1β expression and secretion in bladder epithelial cells but had no effect on IL-1β on nerve cells. (*=P<0.05, **=P<0.01, ***=P<0.001, Two-tailed t-test for confocal imaging data and Mann-Whitney U-test for ELISAs.
Furthermore, to examine if the effects of NK1R inhibition can be generalized, we used two additional NK1R antagonists (CP99994 and L703.303). HTB-9 cells and differentiated SH-SY5Y cells were pre-treated with SR140333, CP99994, L-703.606 or IL-1RA Anakinra (500 ng/ml) for 30 minutes before infection with CY17 (10^4 cfu/ml, four hours), or treatment with exogenous recombinant SP (R&D System) or IL-1β (Abnova) (20 ng/ml, four hours).

Asc^−/− mice [2] = assay: Anakinra treatment of infected Asc^−/− mice (bladder NK1R/SP staining, disease severity); format: in vivo
Experimental: FIG. 8a The mice were pre-treated with interleukin 1 receptor antagonist (IL1-RA) Anakinra, 30 min before infection and daily after infection with E. coli CFT073 (1 mg in 100 μl of PBS i.p. per mouse). FIG. 8b Reduction in NK1R in Anakinra® treated compared to untreated control mice. Bladder tissue sections from infected Asc^−/− mice treated with Anakinra® were stained for NK1R. […] FIG. 8c Reduction in SP staining in Anakinra® treated Asc^−/− mice compared to untreated mice. […] Sections were obtained from 3 mice per group; one of two experiments is shown. *=p<0.05, **=p<0.01, two tailed t-test). FIG. 8d The disease severity score was reduced by the Anakinra (n=3-4, ***P<0.001, compared to untreated Asc^−/− mice, Fisher's exact test, Reference for (d):.
To confirm the importance of Il1b for the neuropeptide response, susceptible Asc^−/− mice were treated with the IL-1 receptor (IL-1R) antagonist Anakinra® (FIG. 8a). This therapeutic approach was recently shown to be effective against acute cystitis, as Anakinra® attenuated the hyper-inflammatory response to infection and prevented bladder pathology in susceptible mice.
These findings were confirmed in vitro by pretreating nerve cells and bladder epithelial cells with Anakinra (500 ng/ml) followed by CY-17 infection (10^4 CFU/ml, 4 hours).

[3] = tested on: differentiated SH-SY5Y cells; assay: Pre-treatment of differentiated SH-SY5Y nerve cells before CY17 infection (confocal imaging, ELISA); format: cell-based, human
Experimental: as §1, §2, §3
Furthermore, to examine if the effects of NK1R inhibition can be generalized, we used two additional NK1R antagonists (CP99994 and L703.303). […]

Asc^−/− mice [4] = conditions: cited from earlier work
HTB-9 cells [5] = assay: Treatment of HTB-9 bladder epithelial cells with exogenous recombinant SP or IL-1β; format: cell-based, human; conditions: four hours
Experimental: as §3

[6] = tested on: differentiated SH-SY5Y cells; assay: Treatment of differentiated SH-SY5Y nerve cells with exogenous recombinant SP or IL-1β; format: cell-based, human; conditions: four hours
Experimental: as §3

[7] = infected Asc^−/− mice, 1 mg in 100 μl PBS i.p. 30 min before and daily after infection, vs infected controls without therapy
[8] = susceptible mice, recently shown
[9] = exogenous recombinant SP 20 ng/ml

COc1ccccc1CN[C@H]1CCCN[C@H]1c1ccccc1 [CP99994, (2S,3S)-N-[(2-Methoxyphenyl)methyl]-2-phenyl-3-piperidinamine]
IL-1β secretion (ELISA, culture supernatants) (HTB-9 cells [1]): decreased | SP secretion (ELISA, culture supernatants) (HTB-9 cells [1]): decreased

Ic1ccccc1CN[C@@H]1C2CCN(CC2)[C@@H]1C(c1ccccc1)c1ccccc1 [L703.606, (2R,3R)-2-benzhydryl-N-[(2-iodanylphenyl)methyl]-1-azabicyclo[2.2.2]octan-3-amine]
IL-1β secretion (ELISA, culture supernatants) (HTB-9 cells [1]): decreased | SP secretion (ELISA, culture supernatants) (HTB-9 cells [1]): decreased

Anakinra: interleukin 1 receptor antagonist (IL1-RA) Anakinra
NK1R response (mucosal NK1R staining, bladder sections) (Asc^−/− mice [2]; [7]): marked reduction | SP response (mucosal SP staining, bladder sections) (Asc^−/− mice [2]; [7]): marked reduction | baseline NK1R staining (Asc^−/− mice [2]; uninfected mice): reduced | baseline SP staining (Asc^−/− mice [2]; uninfected mice): reduced | IL-1β secretion (ELISA, culture supernatants) (HTB-9 cells [1]): inhibited | NK1R expression / staining (HTB-9 cells [1]; pretreatment prior to CY17 infection (10^4 CFU/ml, 4 hours)): marked reduction | NK1R staining ([3]; Anakinra 500 ng/ml pretreatment, CY-17 infection (10^4 CFU/ml, 4 hours)): marked reduction | SP/NK1R response to infection (confocal imaging) ([3]; pre-treated 30 minutes before CY17 (10^4 cfu/ml, four hours)): no effect | disease severity score (Asc^−/− mice [4]; compared to untreated Asc^−/− mice, n=3-4, P<0.001): reduced | bladder pathology (Asc^−/− mice [4]; [8]): prevented | hyper-inflammatory response to infection (Asc^−/− mice [4]; [8]): attenuated

IL-1β: exogenous recombinant IL-1β (Abnova)
SP/NK1R expression (HTB-9 cells [5]; exogenous IL-1β 20 ng/ml): increased | SP/NK1R expression ([6]; exogenous IL-1β 20 ng/ml): increased

SP: exogenous recombinant SP (R&D System), ligand of NK1R (RPKPQQFFGLM-NH2; ends and bridges not checked; UniProt P20366 58-68, looked up)
IL-1β expression and secretion (HTB-9 cells [5]; [9]): activated | IL-1β [6, 9]: no effect
